These molecules were tested on Glo-Response ARE-luc2P HEK293 cell line (assay: ARE luciferase reporter cell-based assay). Conditions: Homo sapiens, HEK293, 24 h, average of results obtained.
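Further: luciferase signal tracks Nrf2 activation of the ARE once compounds disrupt KEAP1-Nrf2 binding, read with One-Glo reagent, DMSO serving as low control.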

Row | SMILES | EC50
1 | CCn1nnc2c(C)c(C(CC(=O)O)c3ccc(C)c(CN4C[C@@H]5CCCCN5c5ncccc5S4(=O)=O)c3)ccc21 (mixture of isomers) [Example 141, (R/S)-3-(3-(((*S)-5,5-Dioxido-7,7a,8,9,10,11-hexahydro-6H-dipyrido[2,1-d:2′,3′-f][1,2,5]thiadiazepin-6-yl)methyl)-4-methylphenyl)-3-(1-ethyl-4-methyl-1H-benzo[d][1,2,3]triazol-5-yl)propanoic Acid] | 0.0039 µM
2 | Cc1ccc([C@@H](c2ccn3c(C(F)F)nnc3c2C)C(C)(C)C(=O)O)cc1CN1CC2(CC2)Oc2ncccc2S1(=O)=O (single isomer, unassigned) [Example 567, (*S)-3-(3-(Difluoromethyl)-8-methyl-[1,2,4]triazolo[4,3-a]pyridin-7-yl)-3-(3-((1′,1′-dioxidospiro[cyclopropane-1,4′-pyrido[2,3-b][1,4,5]oxathiazepin]-2′(3′H)-yl)methyl)-4-methylphenyl)-2,2-dimethylpropanoic Acid] | 0.0026 µM
3 | CCn1nnc2c(C)c([C@H](CC(=O)O)c3ccc(C)c(CN4C[C@@H]5CCCN5c5ccccc5S4(=O)=O)c3)ccc21 (relative stereo) [Example 149, (*R)-3-[3-[(5,5-Dioxo-7a,8,9,10-tetrahydro-7H-pyrrolo[2,1-d][1,2,5]benzothiadiazepin-6-yl)methyl]-4-methyl-phenyl]-3-(1-ethyl-4-methyl-benzotriazol-5-yl)propanoic Acid] | 0.25 µM
4 | Cc1ccc([C@H](CC(=O)O)c2ccc3c(nnn3CC3CC3)c2C)cc1CN1C[C@]2(C)CCCN2c2ncccc2S1(=O)=O (relative stereo) [Example 12, (*S)-3-(1-(Cyclopropylmethyl)-4-methyl-1H-benzo[d][1,2,3]triazol-5-yl)-3-(4-methyl-3-(((*S)-7a-methyl-5,5-dioxido-7a,8,9,10-tetrahydropyrido[2,3-f]pyrrolo[2,1-d][1,2,5]thiadiazepin-6(7H)-yl)methyl)phenyl)propanoic Acid] | 0.0027 µM
5 | CCn1nnc2c(C)c([C@H](CC(=O)O)c3ccc(C)c(CN4C[C@H]5COCCN5c5ncccc5S4(=O)=O)c3)ccc21 (single isomer, unassigned) [Example 137, (*R)-3-(3-(((*S)-5,5-Dioxido-7a,8,10,11-tetrahydro-[1,4]oxazino[3,4-d]pyrido[2,3-f][1,2,5]thiadiazepin-6(7H)-yl)methyl)-4-methylphenyl)-3-(1-ethyl-4-methyl-1H-benzo[d][1,2,3]triazol-5-yl)propanoic Acid] | 0.3 µM
6 | CCn1nnc2c(C)c([C@H](CC(=O)O)c3ccc(C)c(CN4C[C@@H]5COCCN5c5ncccc5S4(=O)=O)c3)ccc21 (single isomer, unassigned) [Example 140, (*R)-3-(3-(((*R)-5,5-Dioxido-7a,8,10,11-tetrahydro-[1,4]oxazino[3,4-d]pyrido[2,3-f][1,2,5]thiadiazepin-6(7H)-yl)methyl)-4-methylphenyl)-3-(1-ethyl-4-methyl-1H-benzo[d][1,2,3]triazol-5-yl)propanoic Acid] | 0.019 µM
7 | CCn1nnc2c(C)c(C(CC(=O)O)c3ccc(C)c(CN4CC5(COC5)Oc5ccccc5S4(=O)=O)n3)ccc21 (racemic) [Example 237, (R 5)-3-(6-((1,1-Dioxidospiro[benzo[b][1,4,5]oxathiazepine-4,3′-oxetan]-2(3H)-yl)methyl)-5-methylpyridin-2-yl)-3-(1-ethyl-4-methyl-1H-benzo[d][1,2,3]triazol-5-yl)propanoic Acid] | 0.019 µM
8 | Cc1c([C@H](CC(=O)O)c2ccc(Cl)c(CN3CC4(COC4)Oc4ccccc4S3(=O)=O)c2)ccn2c(C(F)(F)F)nnc12 (single isomer, unassigned) [Example 96, (*R)-3-(4-Chloro-3-((1′,1′-dioxoidospiro[benzo[b]]oxethiazepine-4,3′-oxetan]-2(3H)-yl)methyl)phenyl)-3-(8-methyl-3-(trifluoromethyl)-[1,2,4]triazolo[4,3-a]pyridine-7-yl)propanoic Acid] | 0.491 µM
9 | Cc1ccc([C@H](c2ccn3c(C(F)(F)F)nnc3c2C)C(C)(C)C(=O)O)cc1CN1CC2(CCOCC2)Oc2nc(CCC(=O)NCCOCCN)ccc2S1(=O)=O (single isomer, unassigned) [Example 344, (*R)-3-(3-((7′-(3-((2-(2-Aminoethoxy)ethyl)amino)-3-oxopropyl)-1′,1′-dioxido-2,3,5,6-tetrahydrospiro[pyran-4,4′-pyrido[2,3-b][1,4,5]oxathiazepin]-2′(3′H)-yl)methyl)-4-methylphenyl)-2,2-dimethyl-3-(8-methyl-3-(trifluoromethyl)-[1,2,4]triazolo[4,3-a]pyridin-7-yl)propanoic Acid] | 4.93 µM
10 | Cc1ncc([C@H](c2ccn3c(C(F)(F)F)nnc3c2C)C(C)(C)C(=O)O)cc1CN1C[C@H]2CCCCN2c2ncc(C#N)cc2S1(=O)=O (relative stereo) [Example 656, (*S)-3-(5-(((*R)-3-Cyano-5,5-dioxido-7,7a,8,9,10,11-hexahydro-6H-dipyrido[2,1-d:2′,3′-f][1,2,5]thiadiazepin-6-yl)methyl)-6-methylpyridin-3-yl)-2,2-dimethyl-3-(8-methyl-3-(trifluoromethyl)-[1,2,4]triazolo[4,3-a]pyridin-7-yl)propanoic Acid] | 3.59 µM
11 | Cc1ccc([C@H](CC(=O)O)c2ccn3c(C(F)F)nnc3c2C)cc1CN1C[C@H]2CCCCN2c2ncc(C#N)cc2S1(=O)=O (relative stereo) [Example 32, (*S)-3-(3-(((*R)-3-Cyano-5,5-dioxido-7,7a,8,9,10,11-hexahydro-6H-dipyrido[2,1-d:2′,3′-f][1,2,5]thiadiazepin-6-yl)methyl)-4-methylphenyl)-3-(3-(difluoromethyl)-8-methyl-[1,2,4]triazolo[4,3-a]pyridin-7-yl)propanoic Acid] | 0.0136 µM
12 | Cc1ccc([C@H](CC(=O)O)c2ccn3c(C(F)(F)F)nnc3c2C)cc1CN1C[C@H]2CCC(F)(F)CN2c2ncccc2S1(=O)=O (relative stereo) [Example 454, (*S)-3-(3-(((*R)-10,10-difluoro-5,5-dioxido-7,7a,8,9,10,11-hexahydro-6H-dipyrido[2,1-d:2′,3′-f][1,2,5]thiadiazepin-6-yl)methyl)-4-methylphenyl)-3-(8-methyl-3-(trifluoromethyl)-[1,2,4]triazolo[4,3-a]pyridin-7-yl)propanoic Acid] | 0.0383 µM
13 | CCn1nnc2c(C)c([C@H](CC(=O)O)c3ccc(C)c(CN4C[C@H]5CCCN5c5ccccc5S4(=O)=O)c3)ccc21 (single isomer, unassigned) [Example 154, (*R)-3-(3-(((R)-5,5-Dioxido-7a,8,9,10-tetrahydrobenzo[f]pyrrolo[2,1-d][1,2,5]thiadiazepin-6(7H)-yl)methyl)-4-methylphenyl)-3-(1-ethyl-4-methyl-1H-benzo[d][1,2,3]triazol-5-yl)propanoic Acid] | 0.059 µM
14 | Cc1cc2cc([C@H](c3ccc(C)c(CN4CC5(CC5)Oc5nc(OCCN6CCCCC6)c(C)cc5S4(=O)=O)c3)C(C)(C)C(=O)O)n(C)c2nn1 (single isomer, unassigned) [Example 351, (*R)-3-(3,7-Dimethyl-7H-pyrrolo[2,3-c]pyridazine-6-yl)-2,2-dimethyl-3-(4-methyl-3-((8′-methyl-1′,1′-dioxido-7′-(2-(piperidine-1-yl)-ethoxy)spiro[cyclopropane-1,4′-pyrido[2,3-b][1,4,5]oxathiazepin]-2′,(3′H)-yl)methyl)phenyl)propanoic Acid] | 0.836 µM

Reference: US10947252B2, “Inhibitors of KEAP1-Nrf2 protein-protein interaction” (Janssen Pharmaceutica NV, priority 2018, dated 2021)
